# “And” between values parts separate entries of the source, which are not always exact repeats. Identical values can stand only once.
# Assays:
# [1] = test system: ESBL KPN; experiment: Potentiation of antibiotics with PNAs (Bliss Independence); type: cell-based, Klebsiella pneumoniae; conditions: 10 μM PNA + 2 μg/mL tetracycline
# Experimental: (§1) Combinatorial effects were evaluated using the Bliss Independence model where the S parameter defines a deviation from no interaction as is defined as: […]
# (§2) Where ODAB is the OD at saturation time in only antibiotic, OD0 is the OD at saturation in no treatment, ODPNA is the OD at saturation in only antisense-PNA at 10 μM, and ODAB, PNA is the OD at saturation in a combination of antibiotic and antisense-PNA. Saturation time was determined as the time when the no treatment control reached its saturation growth phase. S>0 is a deviation towards synergy and S<0 is a deviation towards antagonism.
# [2] = test system: intracellular SL1344 S. typhimurium in HeLa cells; experiment: Salmonella infection of HeLa cells and PNA treatment (T3SS-PNA or naked PNA); type: cell-based, Salmonella enterica serovar typhimurium; conditions: for reduction of intra-epithelial Salmonella CFU: PNA delivered via the T3SS, vs no treatment, p<0.05; for reduction of intra-epithelial Salmonella CFU / clearing of infection (in words): 10 μM, 18 hours; for GFP expressing Salmonella in images (in words): T3SS-PNA treatment, compared to no treatment or Naked-PNA treatment; for clearing of infection (in words): naked PNA added exogenously after infection, compared to no treatment
# Experimental: FIG. 4. Establishing the bacterial Type III secretion system (T3SS) for PNA transport. (A) Schematic showing enhancement of PNA delivery into HeLa cells using the bacterial T3SS of Salmonella enterica serovar typhimurium (STm) for treatment of an intracellular infection of STm. HeLa cells were seeded and allowed to grow for 24 h. SL1344 GFP STm was added at a MOI of 10:1 and allowed to infect HeLa cells for 45 min following two separate conditions: (Top) No PNA is added during this time, termed here as Naked PNA treatment, (Bottom) PNA is added at the time of infection at t=0 to utilize the T3SS, termed here as T3SS-PNA treatment. The T3SS-PNAs enter Salmonella during 45 minutes of incubation due to transport enhanced by the cell penetrating peptides, followed by entry into host cells via T3SS encoding and PNA carrying STm. (Top and Bottom). After 45 minutes infected HeLa cells are washed and treated with media containing gentamicin for 75 minutes to kill extracellular bacteria. The cells are then incubated for 18 h with media containing gentamicin following the two separate conditions: (Top) PNA supplied after infection for Naked PNA treatment. (Bottom) No PNA is added after infection. Post 18 hours of treatment HeLa cells are fixed for imaging or lysed for Colony forming Unit (CFU) analysis. (B) Representative images of uninfected (Top left), and infected HeLa cells without treatment (Bottom left). Top (right) panels show representative images of infected HeLa cells following Naked-PNA treatment. Bottom (right) panels show representative images of infected HeLa cells following T3SS-PNA treatment. HeLa cells are stained with nucleic stain DAPI (blue), and membrane stain Phalloidin (pink), and green pixels represent intracellular SL1344 S. typhimurium fluorescing GFP (green). […] (C) Intracellular S. typhimurium load (CFU/mL) in presence or absence of treatment. Significant reduction in STm CFU in HeLa cells when PNA is delivered using T3SS.
# For all cases, HeLa cells were infected at time t=0 with SL1344 for 45 minutes with a multiplicity of infection (MOI) of bacteria to HeLa cells of approximately 10:1. For the T3SS-PNA treatment method HeLa cells were co-incubated with SL1344 and either α-rpsD or α-lexA for 45 minutes, allowing the PNA to enter the Salmonella while simultaneously transporting the PNA-carrying Salmonella into the HeLa cells using the T3SS. […] Post-infection, the cells were washed and incubated with media containing gentamicin for a period of 75 minutes to remove any extracellular bacteria and/or PNA. For all treatments the media was then replaced with fresh gentamicin containing growth medium, with the naked PNA treatment condition also containing 10 μM PNA, and incubated an additional 18 (FIG. 4A). At the end of 18 hours, cultures were analyzed via imaging or measured by intra-epithelial colony forming units (CFU). […] The present inventors obtained similar results in an infection of mouse osteoblast cells (FIG. 11B).
# Salmonella infection of HeLa cells and PNA treatment: For a single infection (FIG. 4), SL1344 cultures were inoculated from a single colony on solid media in to 1 mL of LB media and grown for 16 hours at 37° C. with shaking. Cultures were diluted 1:10 and regrown in LB prior to infection. Bacteria were washed thrice with PBS, optical density at 600 nm measured, and diluted to a multiplicity of infection (MOI) of 10 in Dulbecco PBS (DPBS). MOI is calculated based on an established optical density and colony forming unit (CFU) calibration, and the number of mammalian cells per well at the time of infection approximated based on their doubling time. Mammalian cells were washed thrice with Dulbecco's Phosphate-Buffered Saline (DPBS, Fisher Scientific) prior to infection for 45 minutes 37° C. with controlled humidity. […]
# [3] = test system: NDM-1 KPN; experiment: Potentiation of antibiotics with PNAs (Bliss Independence); type: cell-based, Klebsiella pneumoniae; conditions: 10 μM PNA + 8 μg/mL meropenem, compared to meropenem monotherapy
# Experimental: as §1, §2
# [4] = test system: MDR E. coli; experiment: PNA growth assay (optical density) on clinical isolate; type: cell-based, Escherichia coli
# Experimental: Bacterial Cell culture: The clinical isolates were obtained from the lab of Nancy Madinger at the University of Colorado Anschutz campus. Clinical isolates were grown in Cation Adjusted Mueller Hinton broth (CAMHB) (Becton, Dickinson and Company 212322) at 37° C. with 225 rpm shaking or on solid CAMHB with 1.5% agar at 37° C. Clinical isolates were maintained as freezer stocks in 90% CAMHB, 10% glycerol at −80° C. Freezer stocks were streaked out onto solid CAMHB and incubated for 16 h to produce single colonies prior to experiments. For each biological replicate, a single colony was picked from solid media and grown for 16 h in liquid CAMHB prior to experiments. Non-clinical isolates, such as E. coli MG1655 (ATCC700926) and Salmonella entorica serovar typhimurium SL1344, were cultured in liquid 2% lysogeny broth (LB) or on 2% LB with 1.5% agar for solid plates. S. typhimurium cultures were supplemented with 30 μg/mL streptomycin and SL1344 strains containing plasmids pFPV (SL1344-mCherry) or pRG1 modified with a lacIq promoter (SL1344-Holin) were supplemented with 100 μg/mL ampicillin. Freezer stocks were stored in 60% LB broth, 40% glycerol at −80° C. Freezer stocks were streaked out onto solid LB and incubated for 16 h to produce single colonies before experiments. For biological replicates, single colonies were started in liquid LB and grown for 16 hours prior to experiments. E. coli MG1655 PNA growth experiments were carried out in M9 media (1×M9 minimal media salts solution (MP Biomedicals), 2.0 mM MgSO4, and 0.1 mM CaCl2 in sterile water) with 0.4% glucose.
# PNA growth assay: Biological replicates were diluted 1:10,000 into treatment condition in 384-well plates and measured for 24 h in a Tecan GENios at 562 nm with a bandwidth of 35 nm. Media absorbance blanks were subtracted from data prior to analysis. Normalized optical density (OD) data is shown normalized to the time point where the “no treatment” growth curves reached saturation phase which varied across biological replicates.
Substance,growth with combination therapy (in words) [1],S-value (Bliss Independence model) ([1]; S>0 indicates synergy),reduction of intra-epithelial Salmonella CFU [2] [%],GFP expressing Salmonella in images (in words) [2],clearing of infection (in words) [2],growth with combination therapy (in words) [3],monotherapy effect (in words) [4],"growth inhibition ([4]; 10 μM PNA, optical density vs no treatment at 16 hours)"
"α-lexA: 12-mer antisense PNA cGGAATGAAAGC (SEQ ID NO. 17) targeting lexA, conjugated to (KFF)3K cell penetrating peptide via AEEA-linker (antisense CGGAATGAAAGC; all peptide nucleic acid (PNA); (KFF)3K cell-penetrating peptide attached via AEEA linker)",significant growth inhibition compared to each monotherapy,positive,~69±8,evident decrease in GFP expressing Salmonella,not effective in clearing an infection,,,
"α-rpsD: 12-mer antisense PNA AGAAAATGGCAA (SEQ ID NO. 19) targeting rpsD, conjugated to (KFF)3K cell penetrating peptide via AEEA-linker (all peptide nucleic acid (PNA); (KFF)3K cell-penetrating peptide attached via AEEA linker)",,,~82±13,evident decrease in GFP expressing Salmonella,not effective in clearing an infection,significantly reduced the growth,effective in killing,98±0.7% and 98%

# Reference: US20210087565A1, “ANTISENSE ANTIBIOTICS AND BACTERIAL SECRETION BASED DELIVERY SYSTEM TO ELIMINATE DRUG-RESISTANT BACTERIA” (priority 2018, published 2021)
